Measured values taken from patent US4945102A, “Heterocyclic derivatives and radiosensitizing agents and antiviral agents comprising same as their active component” (Pola Chemical Industries Inc., Japan, priority 1987, dated 1990).
Where two headings read alike, the source gives them in different places.

Tests used:
[1] = Acute toxicity test; type: in vivo; conditions: for General Status / LD50 at 336 h: mouse, in vivo; for LD50 at 336 h: ICR male mice, 14 days, read-out: LD50/14 (50% death rate over 14 days)
Description: Acute toxicity test and other tests regarding radiosensitising ability and antiviral activity were carried out using the compounds of the present invention.
ICR strain male mice of 5 week old were intravenously or intraperitoneally administered with various compounds each dissolved in a physiological saline or in a physiological saline containing 10% DMSO. The mice were observed over 14 days and 50% death rates (LD50/14) were obtained.

[2] = system: single cells of EMT-6; assay: Radiosensitivity test, in vitro test 1 (single cells of EMT-6, hypoxic); type: cell-based; conditions: 1.0 mM, single EMT-6 cells, 60Co gamma rays
Source text: Cells used in the test: single cells of EMT-6
Irradiation: ^60 Co - gamma rays
Cell treatment to hypoxia:
A mixture gas of 95% nitrogen and 5% carbon dioxide was passed through cell suspension.
Determined by counting colonies.
Radiosensitivity enhancement ratio (ER): [formula]

[3] = system: Herpes simplex virus type I; assay: Antiviral activity test (cytopathic effect in Vero cells); type: cell-based; design: key: 0: almost all cells are dead; 1: certain effect of test agent with some dead cells; 2: normal; conditions: one day
Description: (3) Antiviral activity test Virus: Herpes simplex virus type I Cells: Vero (monkey kidney cells) Culture medium: 2% FBS MEM A sample conditioned to contain 2×10^5 /ml of vero cells was cultured at 37° C. in an atmosphere of 5% CO2 for 1 day to obtain a monolayer sample. The sample was infected by HSV virus diluted with PBS (phosphate buffer). Compound (I) was dissolved in DMSO, then adjusted to have concentrations of 100 μg/ml, 50 μg/ml, 10/μg/ml,5,μ/ml and 1 μg/ml by 2% FBS MEM, and served as test agents. The culture cells were added with each agent separately and incubated at 37° C. in a Co2 incubator for one day. The cytopathic effect was observed under microscope. Cells were stained by crystal violet and scored as follows: 0: almost all cells are dead 1: certain effect of test agent with some dead cells 2: normal The results are shown in Table 3.

[4] = system: EMT-6 tumor; assay: Radiosensitivity in vivo test (EMT-6 tumor); design: species or system Balb/c mice; conditions: 200 mg/kg intraperitoneal 20 minutes prior to whole body 60Co irradiation
Description: Tested compound: compound (3), 200 mg/kg
Compound (3) dissolved in a physiological saline was intraperitoneally administered 20 minutes prior to irradiation.
Irradiation: ^60 Co - gamma rays, whole body irradiation
Determination of radiosensitivity enhancement:
Enhancement ratio (ER) was obtained from irradiation dose and reduction ratio of tumor cells.

[5] = system: Spheroids of EMT-6; assay: Radiosensitivity test, in vitro test 2 (spheroids of EMT-6); type: cell-based; conditions: 1 mM, 37° C. over 30 to 60 minutes, 60Co gamma rays
Description: (b) In vitro test 2 Cells used in the test: Spheroids of EMT-6 Irradiation: ^60 Co - gamma rays Tested compound: Compound (3), 1 mM Determination of radiosensitivity enhancement: Six particles of spheroid having a certain size were taken and placed in a culture solution containing compound (3) having a concentration of 1 mM, and incubated at 37° C. over 30 to 60 minutes, followed by irradiation. The spheroids were treated by trypsin and then the enhancement ratio (ER) was obtained by counting colonies.

Compound	Dead/Treated ([1]; intraperitoneal, 720 mg/kg)	Dead/Treated ([1]; intraperitoneal, 860 mg/kg)	General Status ([1]; ip)	LD50 at 336 h ([1]; ip, intraperitoneal) [mg/kg]	Radiosensitivity enhancement ratio (ER) [2]	Dead/Treated ([1]; intravenous, 720 mg/kg)	Dead/Treated ([1]; intravenous, 860 mg/kg)	General Status ([1]; iv)	LD50 at 336 h ([1]; intravenous) [mg/kg]	cytopathic effect score ([3]; 1 μg/ml)	cytopathic effect score ([3]; 5 μg/ml)	cytopathic effect score ([3]; 10 μg/ml)	cytopathic effect score ([3]; 50 μg/ml)	cytopathic effect score ([3]; 100 μg/ml)	enhancement ratio (ER) [4]	enhancement ratio (ER) [5]	Dead/Treated ([1]; intraperitoneal, 600 mg/kg)
CC(=O)OCC(COC(C)=O)OCn1ccnc1[N+](=O)[O-] [(1), 1-[2-acetoxy-1-(acetoxymethyl)ethoxy]methyl-2-nitroimidazol]	0/2	0/2	Calmed down	> 860													
O=[N+]([O-])c1ncn(COC(CO)CO)n1 [(4), 1-[2-hydroxy-1-(hydroxymethyl)ethoxy]methyl-3-nitro-1,2,4-triazol]					1.50	0/2	1/2	Calmed down	860	0	0	1	2	2			
O=[N+]([O-])c1nccn1COC(CO)CO [Compound (3), 1-[2-hydroxy-1-(hydroxymethyl)ethoxy]methyl-2-nitroimidazol]					1.70	0/2	0/2	Calmed down	> 860	0	0	1	2	2	1.55	1.55	
CC(=O)OCC(COC(C)=O)OCn1cnc([N+](=O)[O-])n1 [(2), 1-[2-acetoxy-1-(acetoxymethyl)ethoxy]methyl-3-nitro-1,2,4-triazol]	0/2	2/2		790													0/2
